# Active and inactive are the calls of the source. The rule behind the calls is not given here.
# Assays:
# [1] = Growth inhibition of human HCC2998 cells at 10 uM after 48 hrs by sulforhodamine B assay; assay type: functional; details: HCC 2998, 48 h, read-out: GI
# Carbonic anhydrase 9 = Carbonic anhydrase 9 (Homo sapiens, UniProt Q16790); assay: Inhibition of human carbonic anhydrase 9 after 15 mins by stopped flow CO2 hydration assay
# HCT-116 = assay: Growth inhibition of human HCT116 cells at 10 uM after 48 hrs by sulforhodamine B assay; assay type: functional
# NCI-H522 = assay: Growth inhibition of human NCI-H522 cells at 10 uM after 48 hrs by sulforhodamine B assay; assay type: functional; details: NCI-H522, 48 h, read-out: GI
# MDA-MB-468 = assay: Growth inhibition of human MDA-MB-468 cells at 10 uM after 48 hrs by sulforhodamine B assay; assay type: functional
# HT-29 = assay: Growth inhibition of human HT-29 cells at 10 uM after 48 hrs by sulforhodamine B assay; assay type: functional
# RPMI-8226 = assay: Growth inhibition of human RPMI8226 cells at 10 uM after 48 hrs by sulforhodamine B assay; assay type: functional
# NCI-H460 = assay: Growth inhibition of human NCI-H460 cells at 10 uM after 48 hrs by sulforhodamine B assay; assay type: functional
# SR = assay: Growth inhibition of human SR cells at 10 uM after 48 hrs by sulforhodamine B assay; assay type: functional; details: read-out: GI
# RXF 393 = assay: Growth inhibition of human RXF393 cells at 10 uM after 48 hrs by sulforhodamine B assay; assay type: functional
# SK-OV-3 = assay: Growth inhibition of human SKOV3 cells at 10 uM after 48 hrs by sulforhodamine B assay; assay type: functional
# SK-MEL-28 = assay: Growth inhibition of human SK-MEL-28 cells at 10 uM after 48 hrs by sulforhodamine B assay; assay type: functional, cell-based
# NCI-H226 = assay: Growth inhibition of human NCI-H226 cells at 10 uM after 48 hrs by sulforhodamine B assay; assay type: functional
# NCI/ADR-RES = assay: Growth inhibition of human NCI-ADR-RES cells at 10 uM after 48 hrs by sulforhodamine B assay; assay type: functional
# SNB-75 = assay: Growth inhibition of human SNB75 cells at 10 uM after 48 hrs by sulforhodamine B assay; assay type: functional; details: SNB-75, 48 h, read-out: GI
# A549 = assay: Growth inhibition of human A549/ATCC cells at 10 uM after 48 hrs by sulforhodamine B assay; assay type: functional
# T47D = assay: Growth inhibition of human T47D cells at 10 uM after 48 hrs by sulforhodamine B assay; assay type: functional
# HOP-92 = assay: Growth inhibition of human HOP92 cells at 10 uM after 48 hrs by sulforhodamine B assay; assay type: functional; details: HOP-92, 48 h, read-out: GI
# M14 = assay: Growth inhibition of human M14 cells at 10 uM after 48 hrs by sulforhodamine B assay; assay type: functional
# HCT-15 = assay: Growth inhibition of human HCT15 cells at 10 uM after 48 hrs by sulforhodamine B assay; assay type: functional
# OVCAR-5 = assay: Growth inhibition of human OVCAR5 cells at 10 uM after 48 hrs by sulforhodamine B assay; assay type: functional
# COLO 205 = assay: Growth inhibition of human COLO205 cells at 10 uM after 48 hrs by sulforhodamine B assay; assay type: functional
# ACHN = assay: Growth inhibition of human ACHN cells at 10 uM after 48 hrs by sulforhodamine B assay; assay type: functional
# SF-295 = assay: Growth inhibition of human SF295 cells at 10 uM after 48 hrs by sulforhodamine B assay; assay type: functional
# SW-620 = assay: Growth inhibition of human SW620 cells at 10 uM after 48 hrs by sulforhodamine B assay; assay type: functional
# CAKI-1 = assay: Growth inhibition of human CAKI-1 cells at 10 uM after 48 hrs by sulforhodamine B assay; assay type: functional
# OVCAR-8 = assay: Growth inhibition of human OVCAR8 cells at 10 uM after 48 hrs by sulforhodamine B assay; assay type: functional
# NCI-H23 = assay: Growth inhibition of human NCI-H23 cells at 10 uM after 48 hrs by sulforhodamine B assay; assay type: functional
# DU-145 = assay: Growth inhibition of human DU145 cells at 10 uM after 48 hrs by sulforhodamine B assay; assay type: functional
# MCF7 = assay: Growth inhibition of human MCF7 cells at 10 uM after 48 hrs by sulforhodamine B assay; assay type: functional
# MDA-MB-231 = assay: Growth inhibition of human MDA-MB-231 cells at 10 uM after 48 hrs by sulforhodamine B assay; assay type: functional
# HL-60(TB) = assay: Growth inhibition of human HL-60(TB) cells at 10 uM after 48 hrs by sulforhodamine B assay; assay type: functional; details: HL-60, 48 h, read-out: GI
# SN12C = assay: Growth inhibition of human SN12C cells at 10 uM after 48 hrs by sulforhodamine B assay; assay type: functional
# MOLT-4 = assay: Growth inhibition of human MOLT4 cells at 10 uM after 48 hrs by sulforhodamine B assay; assay type: functional; details: MOLT-4, 48 h, read-out: GI
# LOX IMVI = assay: Growth inhibition of human LOXIMVI cells at 10 uM after 48 hrs by sulforhodamine B assay; assay type: functional
# MDA-MB-435 = assay: Growth inhibition of human MDA-MB-435 cells at 10 uM after 48 hrs by sulforhodamine B assay; assay type: functional
# EKVX = assay: Growth inhibition of human EKVX cells at 10 uM after 48 hrs by sulforhodamine B assay; assay type: functional
# U-251 = assay: Growth inhibition of human U251 cells at 10 uM after 48 hrs by sulforhodamine B assay; assay type: functional; details: U-251, 48 h, read-out: GI
# SK-MEL-2 = assay: Growth inhibition of human SK-MEL-2 cells at 10 uM after 48 hrs by sulforhodamine B assay; assay type: functional
# UACC-62 = assay: Growth inhibition of human UACC62 cells at 10 uM after 48 hrs by sulforhodamine B assay; assay type: functional; details: UACC-62, 48 h, read-out: GI
# UACC-257 = assay: Growth inhibition of human UACC257 cells at 10 uM after 48 hrs by sulforhodamine B assay; assay type: functional
# 786-0 = assay: Growth inhibition of human 786-0 cells at 10 uM after 48 hrs by sulforhodamine B assay; assay type: functional
# OVCAR-3 = assay: Growth inhibition of human OVCAR3 cells at 10 uM after 48 hrs by sulforhodamine B assay; assay type: functional
# Hs-578T = assay: (§1) Growth inhibition of human Hs 578T cells at 10 uM after 48 hrs by sulforhodamine B assay; assay type: functional
# TK-10 = assay: Growth inhibition of human TK10 cells at 10 uM after 48 hrs by sulforhodamine B assay; assay type: functional
# SF-268 = assay: Growth inhibition of human SF268 cells at 10 uM after 48 hrs by sulforhodamine B assay; assay type: functional
# SNB-19 = assay: Growth inhibition of human SNB19 cells at 10 uM after 48 hrs by sulforhodamine B assay; assay type: functional
# SK-MEL-5 = assay: Growth inhibition of human SK-MEL-5 cells at 10 uM after 48 hrs by sulforhodamine B assay; assay type: functional
# CCRF-CEM = assay: Growth inhibition of human CCRF-CEM cells at 10 uM after 48 hrs by sulforhodamine B assay; assay type: functional; details: read-out: GI
# BT-549 = assay: Growth inhibition of human BT549 cells at 10 uM after 48 hrs by sulforhodamine B assay; assay type: functional
# HOP-62 = assay: Growth inhibition of human HOP62 cells at 10 uM after 48 hrs by sulforhodamine B assay; assay type: functional
# KM12 = assay: Growth inhibition of human KM12 cells at 10 uM after 48 hrs by sulforhodamine B assay; assay type: functional
# SF-539 = assay: Growth inhibition of human SF539 cells at 10 uM after 48 hrs by sulforhodamine B assay; assay type: functional
# [2] = as §1; assay type: functional; details: read-out: GI
smiles,measurement,setting,value
CSc1nc(N)n(-c2ccncc2S(N)(=O)=O)n1,inhibition of growth at 10 µM,[1],10%
same,Ki,Carbonic anhydrase 9,65.4 nM
same,growth inhibition (GI),HCT-116,inactive
same,inhibition of growth at 10 µM,NCI-H522,1%
same,growth inhibition (GI),MDA-MB-468,inactive
same,growth inhibition (GI),HT-29,inactive
same,inhibition of growth at 10 µM,"RPMI-8226; RPMI-8226, 48 h, read-out: GI",2%
same,growth inhibition (GI),NCI-H460,inactive
same,inhibition of growth at 10 µM,SR,10%
same,growth inhibition (GI),RXF 393,inactive
same,growth inhibition (GI),SK-OV-3,inactive
same,growth inhibition (GI),SK-MEL-28,inactive
same,growth inhibition (GI),NCI-H226,inactive
same,growth inhibition (GI),NCI/ADR-RES,inactive
same,inhibition of growth at 10 µM,SNB-75,7%
same,growth inhibition (GI),A549,inactive
same,growth inhibition (GI),T47D,inactive
same,inhibition of growth at 10 µM,HOP-92,20%
same,growth inhibition (GI),M14,inactive
same,growth inhibition (GI),HCT-15,inactive
same,growth inhibition (GI),OVCAR-5,inactive
same,growth inhibition (GI),COLO 205,inactive
same,growth inhibition (GI),ACHN,inactive
same,growth inhibition (GI),SF-295,inactive
same,growth inhibition (GI),SW-620,inactive
same,growth inhibition (GI),CAKI-1,inactive
same,growth inhibition (GI),OVCAR-8,inactive
same,growth inhibition (GI),NCI-H23,inactive
same,growth inhibition (GI),DU-145,inactive
same,growth inhibition (GI),MCF7,inactive
same,inhibition of growth at 10 µM,"MDA-MB-231; MDA-MB-231, 48 h, read-out: GI",1%
same,inhibition of growth at 10 µM,HL-60(TB),3%
same,growth inhibition (GI),SN12C,inactive
same,inhibition of growth at 10 µM,MOLT-4,1%
same,growth inhibition (GI),LOX IMVI,inactive
same,growth inhibition (GI),MDA-MB-435,inactive
same,growth inhibition (GI),EKVX,inactive
same,inhibition of growth at 10 µM,U-251,6%
same,growth inhibition (GI),SK-MEL-2,inactive
same,inhibition of growth at 10 µM,UACC-62,4%
same,inhibition of growth at 10 µM,"UACC-257; UACC-257, 48 h, read-out: GI",7%
same,growth inhibition (GI),786-0,inactive
same,growth inhibition (GI),OVCAR-3,inactive
same,growth inhibition (GI),Hs-578T,inactive
same,growth inhibition (GI),TK-10,inactive
same,growth inhibition (GI),SF-268,inactive
same,growth inhibition (GI),SNB-19,inactive
same,growth inhibition (GI),SK-MEL-5,inactive
same,inhibition of growth at 10 µM,CCRF-CEM,8%
same,growth inhibition (GI),BT-549,inactive
same,growth inhibition (GI),HOP-62,inactive
same,growth inhibition (GI),KM12,inactive
same,growth inhibition (GI),SF-539,inactive
Cc1nn(-c2ccncc2S(N)(=O)=O)c(C)c1C,Ki,Carbonic anhydrase 9,23.1 nM
same,growth inhibition (GI),HCT-116,inactive
same,inhibition of growth at 10 µM,NCI-H522,3%
same,growth inhibition (GI),MDA-MB-468,inactive
same,growth inhibition (GI),HT-29,inactive
same,growth inhibition (GI),RPMI-8226,inactive
same,growth inhibition (GI),NCI-H460,inactive
same,inhibition of growth at 10 µM,SR,16%
same,growth inhibition (GI),RXF 393,inactive
same,growth inhibition (GI),SK-OV-3,inactive
same,growth inhibition (GI),SK-MEL-28,inactive
same,growth inhibition (GI),NCI-H226,inactive
same,inhibition of growth at 10 µM,SNB-75,6%
same,growth inhibition (GI),A549,inactive
same,growth inhibition (GI),T47D,inactive
same,inhibition of growth at 10 µM,HOP-92,25%
same,inhibition of growth at 10 µM,"M14; M14, 48 h, read-out: GI",2%
same,growth inhibition (GI),HCT-15,inactive
same,growth inhibition (GI),OVCAR-5,inactive
same,growth inhibition (GI),COLO 205,inactive
same,growth inhibition (GI),ACHN,inactive
same,growth inhibition (GI),SF-295,inactive
same,inhibition of growth at 10 µM,"SW-620; SW-620, 48 h, read-out: GI",12%
same,growth inhibition (GI),CAKI-1,inactive
same,growth inhibition (GI),OVCAR-8,inactive
same,growth inhibition (GI),DU-145,inactive
same,inhibition of growth at 10 µM,"MCF7; MCF7, 48 h, read-out: GI",4%
same,growth inhibition (GI),MDA-MB-231,inactive
same,inhibition of growth at 10 µM,HL-60(TB),9%
same,inhibition of growth at 10 µM,SN12C; read-out: GI,9%
same,inhibition of growth at 10 µM,MOLT-4,5%
same,growth inhibition (GI),MDA-MB-435,inactive
same,growth inhibition (GI),EKVX,inactive
same,inhibition of growth at 10 µM,U-251,1%
same,growth inhibition (GI),SK-MEL-2,inactive
same,inhibition of growth at 10 µM,UACC-62,3%
same,growth inhibition (GI),UACC-257,inactive
same,growth inhibition (GI),786-0,inactive
same,growth inhibition (GI),OVCAR-3,inactive
same,inhibition of growth at 10 µM,[2],20%
same,growth inhibition (GI),TK-10,inactive
same,growth inhibition (GI),SF-268,inactive
same,inhibition of growth at 10 µM,"SNB-19; SNB-19, 48 h, read-out: GI",1%
same,inhibition of growth at 10 µM,"SK-MEL-5; SK-MEL-5, 48 h, read-out: GI",3%
same,inhibition of growth at 10 µM,CCRF-CEM,6%
same,inhibition of growth at 10 µM,"BT-549; BT-549, 48 h, read-out: GI",4%
same,growth inhibition (GI),HOP-62,inactive
same,growth inhibition (GI),KM12,inactive
same,growth inhibition (GI),SF-539,inactive

# — ChEMBL document CHEMBL2434896, “Carbonic anhydrase inhibitors. Synthesis of heterocyclic 4-substituted pyridine-3-sulfonamide derivatives and their inhibition of the human cytosolic isozymes I and II and transmembrane tumor-associated isozymes IX and XII” (Eur J Med Chem, 2013)
